From US20230365561A1, “BETA-LACTAMASE INHIBITORS AND THEIR PREPARATION” (NINGXIA ACADEMY OF AGRICUL TURE AND FORESTRY SCIENCES, priority 2020, published 2023)
Structures can show the parent of a compound that is named as a salt. Where two headings read alike, the source gives them in different places.

Key:
Format in all cases: cell-based
[1] = system: E. coli clinical isolate (strain 1); assay: MIC by broth microdilution (alone and in combination with meropenam), strain 1; conditions: for MIC: Escherichia coli, compound alone
Description: (§1) Compounds of the present invention alone, meropenam (MER) alone, and as a combination with test antibiotic (meropenam) were tested for antimicrobial activity by determing minimum inhibitory concentration (MIC, mg/L) using the broth microdilution method according to the guidelines of the Clinical Laboratories and Stansards Insitute (“Methods for Dilution Antimicrobial Suscetibility Tests for Bacterial that Grow Aerobiclly”, Approved standard, […]., Clinical and Laboratories Stanards Institute (CLSI) Document M7-A8, Wayne, Pa., USA, 2009). Meropenam as a test antibiotic compound was dissolved in DMSO. Meropenam was then diluted in microbial growth medium (Mueller-Hinton Broth II, cation adjusted) resulting in a final concention range of 0.125-64 mg/L in serial two-fold dilution. In all cases the filnal DMSO concentraion was less than 0.5%. Bacteria were added to 96-well microtitre plates containing the serial two-fold dilutions of the compoumds; the final cell density was appoximately 5x10^5 colony forming units/mL (CFU/mL). Plates were incubated at 37° C. for 18-24 hours and read visually. The MIC, i.e. the lowest concentration of the test compound that inhibited visible growth of the bacteria, was recorded. The same assay conditions were used when the compounds of present invention alone, and as a combination with test meropenam antibiotic compound was tested for minmum inhibitory concentration (MIC, mg/L). Whileest meropenam was serially diluted as descrribed above, a constant concentration of the present invention of 4 µg/mL was used.
(§2) Bacterial strains that were used to evaluate the antimicrobial activity using the MIC determination included but were not limited to E. coli clinical isolate (strain 1), E. coli 8739 (strain 2), K. pneumoniae clinical isolate (strain 3), K. pneumoniae 700603 (strain 4), E. cloacae clinical isolate (strain 5), E. cloacae 700323 (strain 6), A. baumannii clinical isolate (strain 7), A. baumannii 19606 (strain 8), P. aeruginosa clinical isolate (strain 9), P. aeruginosa 9027 (strain 10).

E. coli 8739 (strain 2) = assay: MIC by broth microdilution (alone and in combination with meropenam), strain 2; conditions: for MIC: Escherichia coli, compound alone
Description: as §1, §2

[2] = system: K. pneumoniae clinical isolate (strain 3); assay: MIC by broth microdilution (alone and in combination with meropenam), strain 3; conditions: for MIC: Klebsiella pneumoniae, compound alone
Description: as §1, §2

[3] = system: K. pneumoniae 700603 (strain 4); assay: MIC by broth microdilution (alone and in combination with meropenam), strain 4; conditions: for MIC: Klebsiella pneumoniae, compound alone
Description: as §1, §2

[4] = system: E. cloacae clinical isolate (strain 5); assay: MIC by broth microdilution (alone and in combination with meropenam), strain 5; conditions: for MIC: Enterobacter cloacae, compound alone
Description: as §1, §2

[5] = system: E. cloacae 700323 (strain 6); assay: MIC by broth microdilution (alone and in combination with meropenam), strain 6; conditions: for MIC: Enterobacter cloacae, compound alone
Description: as §1, §2

[6] = system: A. baumannii clinical isolate (strain 7); assay: MIC by broth microdilution (alone and in combination with meropenam), strain 7; conditions: for MIC: Acinetobacter baumannii, compound alone
Description: as §1, §2

[7] = system: A. baumannii 19606 (strain 8); assay: MIC by broth microdilution (alone and in combination with meropenam), strain 8; conditions: for MIC: Acinetobacter baumannii, compound alone
Description: as §1, §2

[8] = system: P. aeruginosa clinical isolate (strain 9); assay: MIC by broth microdilution (alone and in combination with meropenam), strain 9; conditions: for MIC: Pseudomonas aeruginosa, compound alone
Description: as §1, §2

[9] = system: P. aeruginosa 9027 (strain 10); assay: MIC by broth microdilution (alone and in combination with meropenam), strain 10; conditions: for MIC: Pseudomonas aeruginosa, compound alone
Description: as §1, §2

[10] = read-out: MIC, antibacterial activity of example alone

MIC [1, 10] [µg/mL] | MIC (E. coli 8739 (strain 2); [10]) [µg/mL] | MIC [2, 10] [µg/mL] | MIC [3, 10] [µg/mL] | MIC [4, 10] [µg/mL] | MIC [5, 10] [µg/mL] | MIC [6, 10] [µg/mL] | MIC [7, 10] [µg/mL] | MIC [8, 10] [µg/mL] | MIC [9, 10] [µg/mL] | SMILES | other results
> 64 | > 64 | > 64 | > 64 | > 64 | > 64 | > 64 | > 64 | > 64 | > 64 | CN1CCC(C(=O)NC(=N)[C@@H]2CC[C@@H]3CN2C(=O)N3OS(=O)(=O)[O-])CC1.[Na+] [Ex.41, Sodium (2S,5R)-2-(N-(1-methylpiperidine-4-carbonyl)carbamimidoyl)-7-oxo-1,6-diazabicyclo[3.2.1]octan-6-yl Sulfate] | –
> 64 | > 64 | > 64 | > 64 | > 64 | > 64 | > 64 | > 64 | > 64 | > 64 | N=C(NC(=O)c1nc(N)cs1)[C@@H]1CC[C@@H]2CN1C(=O)N2OS(=O)(=O)[O-].[Na+] [Ex.22, Sodium (2S,5R)-2-(N-(4-aminothiazole-2-carbonyl)carbamimidoyl)-7-oxo-1,6-diazabicyclo[3.2.1]octan-6-yl Sulfate] | –
– | – | – | – | – | – | – | – | – | – | N=C(NC(=O)c1ccc(C(F)(F)F)cc1)[C@@H]1CC[C@@H]2CN1C(=O)N2OS(=O)(=O)[O-].[Na+] [Ex.49, Sodium (2S,5R)-7-oxo-2-(N-(4-(trifluoromethyl)benzoyl)carbamimidoyl)-1,6-diazabicyclo[3.2.1]octan-6-yl Sulfate] | MIC ([1]; read-out: MIC): > 64 µg/mL; MIC (E. coli 8739 (strain 2); read-out: MIC): > 64 µg/mL; MIC ([2]; read-out: MIC): > 64 µg/mL; MIC ([3]; read-out: MIC): > 64 µg/mL; MIC ([4]; read-out: MIC): > 64 µg/mL; MIC ([5]; read-out: MIC): > 64 µg/mL; MIC ([6]; read-out: MIC): > 64 µg/mL; MIC ([7]; read-out: MIC): > 64 µg/mL; MIC ([8]; read-out: MIC): > 64 µg/mL; MIC ([9]; read-out: MIC): > 64 µg/mL
– | – | – | – | – | – | – | – | – | – | N#Cc1ccc(C(=O)NC(=N)[C@@H]2CC[C@@H]3CN2C(=O)N3OS(=O)(=O)[O-])cc1.[Na+] [Ex.45, Sodium (2S,5R)-2-(N-(4-cyanobenzoyl)carbamimidoyl)-7-oxo-1,6-diazabicyclo[3.2.1]octan-6-yl Sulfate] | MIC ([1]; read-out: MIC): > 64 µg/mL; MIC (E. coli 8739 (strain 2); read-out: MIC): > 64 µg/mL; MIC ([2]; read-out: MIC): > 64 µg/mL; MIC ([3]; read-out: MIC): > 64 µg/mL; MIC ([4]; read-out: MIC): > 64 µg/mL; MIC ([5]; read-out: MIC): > 64 µg/mL; MIC ([6]; read-out: MIC): > 64 µg/mL; MIC ([7]; read-out: MIC): > 64 µg/mL; MIC ([8]; read-out: MIC): > 64 µg/mL; MIC ([9]; read-out: MIC): > 64 µg/mL
> 64 | > 64 | > 64 | > 64 | > 64 | > 64 | > 64 | > 64 | > 64 | > 64 | N=C(NC(=O)Cc1cccnc1)[C@@H]1CC[C@@H]2CN1C(=O)N2OS(=O)(=O)[O-].[Na+] [Ex.34, Sodium (2S,5R)-7-oxo-2-(N-(2-(pyridin-3-yl)acetyl)carbamimidoyl)-1,6-diazabicyclo[3.2.1]octan-6-yl sulfate] | –
– | – | – | – | – | – | – | – | – | – | CC(=O)N1CCCC[C@@H]1C(=O)NC(=N)[C@@H]1CC[C@@H]2CN1C(=O)N2OS(=O)(=O)[O-].[Na+] [Ex.46, Sodium (2S,5R)-2-(N-((R)-1-acetylpiperidine-2-carbonyl)carbamimidoyl)-7-oxo-1,6-diazabicyclo[3.2.1]octan-6-yl Sulfate] | MIC ([1]; read-out: MIC): > 64 µg/mL; MIC (E. coli 8739 (strain 2); read-out: MIC): > 64 µg/mL; MIC ([2]; read-out: MIC): > 64 µg/mL; MIC ([3]; read-out: MIC): > 64 µg/mL; MIC ([4]; read-out: MIC): > 64 µg/mL; MIC ([5]; read-out: MIC): > 64 µg/mL; MIC ([6]; read-out: MIC): > 64 µg/mL; MIC ([7]; read-out: MIC): > 64 µg/mL; MIC ([8]; read-out: MIC): > 64 µg/mL; MIC ([9]; read-out: MIC): > 64 µg/mL
> 64 | > 64 | > 64 | > 64 | > 64 | > 64 | > 64 | > 64 | > 64 | > 64 | N=C(NC(=O)c1ccc(F)cc1)[C@@H]1CC[C@@H]2CN1C(=O)N2OS(=O)(=O)O [Ex.17, (2S,5R)-2-(N-(4-fluorobenzoyl)carbamimidoyl)-7-oxo-1,6-diazabicyclo[3.2.1]octan-6-yl Hydrogen Sulfate] | –
– | – | – | – | – | – | – | – | – | – | C[C@@H](O)[C@H]1C(=O)N2C(C(=O)O)=C(S[C@@H]3CN[C@H](C(=O)N(C)C)C3)[C@H](C)[C@H]12 [MER, meropenam, reference compound] | MIC, MER Alone ([1]; meropenam alone): 2.0 µg/mL; MIC, MER Alone (E. coli 8739 (strain 2); meropenam alone): 2.0 µg/mL; MIC, MER Alone ([2]; meropenam alone): 2.0 µg/mL; MIC, MER Alone ([3]; meropenam alone): 1.0 µg/mL; MIC, MER Alone ([4]; meropenam alone): 2.0 µg/mL; MIC, MER Alone ([5]; meropenam alone): 2.0 µg/mL; MIC, MER Alone ([6]; meropenam alone): 2.0 µg/mL; MIC, MER Alone ([7]; meropenam alone): 1.0 µg/mL; MIC, MER Alone ([8]; meropenam alone): 2.0 µg/mL; MIC, MER Alone ([9]; meropenam alone): 2.0 µg/mL
> 64 | > 64 | > 64 | > 64 | > 64 | > 64 | > 64 | > 64 | > 64 | > 64 | CN1CCC[C@@H](C(=O)NC(=N)[C@@H]2CC[C@@H]3CN2C(=O)N3OS(=O)(=O)[O-])C1.[Na+] [Ex.29, Sodium (2S,5R)-2-(N-((R)-1-methylpiperidine-3-carbonyl)carbamimidoyl)-7-oxo-1,6-diazabicyclo[3.2.1]octan-6-yl Sulfate] | –
– | – | – | – | – | – | – | – | – | – | N=C(NC(=O)C1CCCN=N1)[C@@H]1CC[C@@H]2CN1C(=O)N2OS(=O)(=O)[O-].[Na+] (stereo partly drawn) [Ex.52, Sodium (2S,5R)-7-oxo-2-(N-(3,4,5,6-tetrahydropyridazine-3-carbonyl)carbamimidoyl)-1,6-diazabicyclo[3.2.1]octan-6-yl Sulfate] | MIC ([1]; read-out: MIC): > 64 µg/mL; MIC (E. coli 8739 (strain 2); read-out: MIC): > 64 µg/mL; MIC ([2]; read-out: MIC): > 64 µg/mL; MIC ([3]; read-out: MIC): > 64 µg/mL; MIC ([4]; read-out: MIC): > 64 µg/mL; MIC ([5]; read-out: MIC): > 64 µg/mL; MIC ([6]; read-out: MIC): > 64 µg/mL; MIC ([7]; read-out: MIC): > 64 µg/mL; MIC ([8]; read-out: MIC): > 64 µg/mL; MIC ([9]; read-out: MIC): > 64 µg/mL
> 64 | > 64 | > 64 | > 64 | > 64 | > 64 | > 64 | > 64 | > 64 | > 64 | N=C(NC(=O)CC1CCOCC1)[C@@H]1CC[C@@H]2CN1C(=O)N2OS(=O)(=O)[O-].[Na+] [Ex.38, Sodium (2S,5R)-7-oxo-2-(N-(2-(tetrahydro-2H-pyran-4-yl)acetyl)carbamimidoyl)-1,6-diazabicyclo[3.2.1]octan-6-yl Sulfate] | –
> 64 | > 64 | > 64 | > 64 | > 64 | > 64 | > 64 | > 64 | > 64 | > 64 | CC(=O)N1CC[C@H](C(=O)NC(=N)[C@@H]2CC[C@@H]3CN2C(=O)N3OS(=O)(=O)[O-])C1.[Na+] [Ex.30, Sodium (2S,5R)-2-(N-((S)-1-acetylpyrrolidine-3-carbonyl)carbamimidoyl)-7-oxo-1,6-diazabicyclo[3.2.1]octan-6-yl Sulfate] | –
> 64 | > 64 | > 64 | > 64 | > 64 | > 64 | > 64 | > 64 | > 64 | > 64 | N=C(NC(=O)c1nccs1)[C@@H]1CC[C@@H]2CN1C(=O)N2OS(=O)(=O)[O-].[Na+] [Ex.23, Sodium (2S,5R)-7-oxo-2-(N-(thiazole-2-carbonyl)carbamimidoyl)-1,6-diazabicyclo[3.2.1]octan-6-yl Sulfate] | –

SMILES | MIC [1, 10] [µg/mL] | MIC (E. coli 8739 (strain 2); [10]) [µg/mL] | MIC [2, 10] [µg/mL] | MIC [3, 10] [µg/mL] | MIC [4, 10] [µg/mL] | MIC [5, 10] [µg/mL] | MIC [6, 10] [µg/mL] | MIC [7, 10] [µg/mL] | MIC [8, 10] [µg/mL] | MIC [9, 10] [µg/mL] | other results
CC(C)(C)OC(=O)N1CCC(C(=O)NC(=N)[C@@H]2CC[C@@H]3CN2C(=O)N3OS(=O)(=O)[O-])CC1.[Na+] [Ex.14, Sodium (2S,5R)-2-(N-(1-(tert-butoxycarbonyl)piperidine-4-carbonyl)carbamimidoyl)-7-oxo-1,6-diazabicyclo[3.2.1]octan-6-yl Sulfate] | > 64 | > 64 | > 64 | > 64 | > 64 | > 64 | > 64 | > 64 | > 64 | > 64 | –
